Patent US10308620B2, “Muscarinic M1 receptor positive allosteric modulators” (SUVEN LIFE SCIENCES LIMITED, priority 2015, dated 2019)

Key:
[1] = target: recombinant human Muscarinic M1 receptor (Homo sapiens (Human), UniProt P11229); experiment: Allosteric potency EC50, CHO cells with pCRE-Luc reporter, in presence of EC20 of acetylcholine; type: cell-based; details: 4 hours
Method in brief: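 Stable CHO cells carrying human M1 receptor and a pCRE-Luc reporter, serum-starved overnight, then exposed to rising compound concentrations plus EC20 acetylcholine in OptiMEM for 4 h at 37 °C. Luciferase read after lysis. EC50 is the concentration giving 50% luciferase stimulation with EC20 acetylcholine present.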

[2] = system: Male Wistar rats; experiment: Object recognition task model (time induced memory deficit); type: in vivo, rat
Experimental: Object Recognition Task Model
The cognition enhancing properties of compounds of this invention were estimated by using this model.
Male Wistar rats (8-10 weeks old) were used as experimental animals. Four animals were housed in each cage. Animals were kept on 20% food deprivation from a day prior to experimentation. Water was provided ad libitum throughout the experiment. Animals were maintained on a 12 hours light/dark cycle in temperature and humidity controlled room. The experiment was carried out in an open field made up of acrylic. Rats were habituated to individual arenas (open field) for 1 hour in the absence of any objects on day 1.
One group of 12 rats received vehicle and another set of animals received test compounds or test compounds and Donepezil, before the familiar (T1) and choice (T2) trials. During the familiarization phase, (T1), the rats were placed individually in the arena for 3 minutes, in which two identical objects (a1 and a2) were positioned 10 cm from the wall. 24 hours after T1, trial for long-term memory test was performed. The same rats were placed in the same arena as they were placed in T1 trial. During the choice phase (T2) rats were allowed to explore the arena for 3 minutes in presence of a copy of familiar object (a3) and one novel object (b). During the T1 and T2 trial, explorations of each object (defined as sniffing, licking, chewing or having moving vibrissae whilst directing the nose towards the object at a distance of less than 1 cm) were recorded using stopwatch.
T1 is the total time spent exploring the familiar objects (a1+a2).
T2 is the total time spent exploring the familiar object and novel object (a3+b). Discriminative index=Time spent with novel object/(time spent with novel and familiar object).
The object recognition test was performed as described in Behavioural Brain Research, 1988, 31, 47-59.

[3] = Rodent pharmacokinetic study; type: in vivo, rat; details: male Wistar rats
Experimental: Rodent Pharmacokinetic Study
Male Wistar rats (260±50 grams) were used as experimental animals. Animals were housed individually in polypropylene cage. Two days prior to study, male Wistar rats were anesthetized with isoflurane for surgical placement of jugular vein catheter. Rats were randomly divided for oral (3 mg/kg) and intravenous (1 mg/kg) dosing (n=3/group) and fasted overnight before oral dosing (p.o.). However, rats allocated to intravenous (i.v.) dosing food and water was provided ad libitum.
At pre-determined point, blood was collected through jugular vein and replenished with an equivalent volume of normal saline. Collected blood was transferred into a labeled eppendorf tube containing 10 μL of heparin as an anticoagulant. Typically blood samples were collected at following time points: 0.08, 0.25, 0.5, 1, 2, 4, 6, 8, and 24 hours post dose. Blood was centrifuged at 4000 rpm for 10 minutes. Plasma was separated and stored frozen at −80° C. until analysis. The concentrations of the test compounds were quantified in plasma by qualified LC-MS/MS method using suitable extraction technique. The test compounds were quantified in the calibration range around 1-1000 ng/mL in plasma. Study samples were analyzed using calibration samples in the batch and quality control samples spread across the batch.
Pharmacokinetic parameters Cmax, Tmax, AUCt, T1/2, clearance, Vz and bioavailability were calculated by non-compartmental model using standard non-compartmental model by using Phoenix WinNonlin 6.0.2 or 6.0.3 version Software package.

[4] = system: rats; experiment: Modulation of cerebral blood flow in frontal cortex (Laser Doppler); type: in vivo, rat; details: intravenous, anaesthetized rats; FIG. 6
Experimental: Modulation of Cerebral Blood Flow in Frontal Cortex:
The effect of test compound on modulation of cerebral blood flow was evaluated using rats.
Rats were acclimatized to the laboratory environment for at least 7 days. Rats (300-350 grams) were housed in a group of four in a controlled environment (Temp=21±3° C.; Humidity=30-70%) and maintained on a 12-hour light/dark cycle with lights on at 07:00 AM. Food and water was provided ad libitum.
Rats were anaesthetized with 12% urethane (i.p.). Animal's body core temperature was maintained at 37° C. via a heating pad and rectal temperature probe. A small incision was made at one of the ventral side of the hind limb and the femoral vein was cannulated with PE10 tubing for drug application. Then animal was placed into a stereotaxic frame and a midline incision was made to expose the skull. A burr hole was drilled over the frontal cortex (stereotaxic coordinates 1 mm anterior and 4 mm lateral to bregma). Oxygen was supplied through the nose cone of the seterotaxic apparatus which was connected to the controlled gaseous supplier with a flow of 200 mL/minute. Laser Doppler probe (AD Instruments Inc) was placed over the hole to monitor cerebral blood flow. […] Data obtained was calculated as percent increase relative to resting basal blood flow level. […]

[5] = 1 mg/kg, p.o., choice trial 24 hours after T1
[6] = rat, plasma, iv, 1 mg/kg i.v. (bolus)
[7] = rat, plasma, 3 mg/kg oral (gavage)

Sequence of recombinant human Muscarinic M1 receptor (P11229 whole entry): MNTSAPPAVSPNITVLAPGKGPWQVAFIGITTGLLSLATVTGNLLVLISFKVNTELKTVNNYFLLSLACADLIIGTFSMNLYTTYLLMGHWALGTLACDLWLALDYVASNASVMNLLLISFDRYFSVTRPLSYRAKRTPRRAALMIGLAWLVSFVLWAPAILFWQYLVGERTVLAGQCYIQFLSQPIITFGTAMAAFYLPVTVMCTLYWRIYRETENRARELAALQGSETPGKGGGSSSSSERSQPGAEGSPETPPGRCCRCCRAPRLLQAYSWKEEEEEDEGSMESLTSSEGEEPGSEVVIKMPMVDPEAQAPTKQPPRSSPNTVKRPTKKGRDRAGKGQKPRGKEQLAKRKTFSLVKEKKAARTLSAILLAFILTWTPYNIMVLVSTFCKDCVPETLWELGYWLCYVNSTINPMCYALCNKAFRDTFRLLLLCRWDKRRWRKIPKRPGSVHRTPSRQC

O=C(N[C@H]1CCCC[C@@H]1O)C1=CN(Cc2cccc(F)c2F)c2ccccc2O1 [Example 18, N-(cis-1S, 2S-2-Hydroxycyclohexyl)-4-(2,3-difluorobenzyl)-4H-benzo[1,4]oxazine-2-carboxamide]
EC50 [1]: 0.331 µM
Inference ([2]; 1 mg/kg, p.o.): Active
Exploration time mean ± S.E.M, Familiar object [2, 5]: 8.74 ± 1.49 s
Exploration time mean ± S.E.M, Novel object [2, 5]: 16.47 ± 1.82 s
Procognitive effects ([2]; in combination with donepezil, FIGS. 1 and 2): better than the either treatment
AUC0-t ([3]; 1 mg/kg i.v. (bolus)): 0.929 ± 0.027 µg·h/mL
AUC0-t ([3]; 3 mg/kg oral (gavage)): 2.07 ± 0.839 µg·h/mL
clearance [3, 6]: 1.02 ± 0.06 L/h/kg
half-life [3, 6]: 2.1 ± 0.1 h
Vd ([3]; rat, plasma, iv, 1 mg/kg i.v. (bolus), read-out: Vz): 3.2 ± 0.1 L/kg
Cmax [3, 7]: 0.477 ± 0.096 µg/mL
Tmax [3, 7]: 0.42 ± 0.14 h
half-life [3, 7]: 3.9 ± 0.8 h
bioavailability ([3]; rat, plasma, 3 mg/kg oral vs 1 mg/kg i.v.): 74 ± 30%
cerebral blood flow in the frontal cortex [4]: significantly increased
